Data: ChEMBL document CHEMBL1139984, “Potent and selective biphenyl azole inhibitors of adipocyte fatty acid binding protein (aFABP)” (Bioorg Med Chem Lett, 2007)

Experiments:
[1] = biological target: Fatty acid-binding protein, heart (Homo sapiens, UniProt P05413); assay: Displacement of 1,8-ANS from mFABP by fluorescence based-assay
[2] = biological target: T1, Fatty acid-binding protein, adipocyte (Homo sapiens, UniProt P15090); assay: Binding affinity to aFABP
[3] = biological target: T1, Fatty acid-binding protein, adipocyte; assay: Displacement of 1,8-ANS from aFABP by fluorescence based-assay
[4] = biological target: Fatty acid-binding protein 5 (Homo sapiens, UniProt Q01469); assay: Displacement of 1,8-ANS from eFABP by fluorescence based-assay
Fatty acid-binding protein 5, sequence (Q01469 whole entry): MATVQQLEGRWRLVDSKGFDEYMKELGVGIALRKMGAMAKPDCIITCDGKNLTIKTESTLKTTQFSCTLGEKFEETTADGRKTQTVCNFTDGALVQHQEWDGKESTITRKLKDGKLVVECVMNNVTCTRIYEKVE

[5] = biological target: T1, Fatty acid-binding protein, adipocyte; assay: Displacement of [3H]2,3-bis[(2,4-dichlorobenzyl)oxy]benzoic acid from aFABP
Homo sapiens = species on record: Homo sapiens; assay: Selectivity for aFABP over mFABP by 1,8-ANS fluorescence based-assay

Fatty acid-binding protein, heart, sequence (P05413 whole entry): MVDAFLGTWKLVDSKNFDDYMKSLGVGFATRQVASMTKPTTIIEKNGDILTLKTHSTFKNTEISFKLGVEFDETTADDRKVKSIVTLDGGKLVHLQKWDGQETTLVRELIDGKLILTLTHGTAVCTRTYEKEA
T1 sequence (P15090 whole entry): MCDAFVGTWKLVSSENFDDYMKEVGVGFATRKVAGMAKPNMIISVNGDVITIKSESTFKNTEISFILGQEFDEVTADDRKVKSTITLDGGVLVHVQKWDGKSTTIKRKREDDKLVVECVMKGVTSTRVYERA

Row | SMILES | Ki [1] | Kd [2] | Ki [3] | Ki [4] | Ki [5] | Ratio Ki (Homo sapiens)
1 | [3H]c1c(Cl)ccc(COc2cccc(C(=O)O)c2OCc2ccc(Cl)c([3H])c2Cl)c1Cl | 0.004 µM | 0.021 µM | 0.002 µM | 0.002 µM |  | 
2 | O=C(O)CNc1cccc(-c2ccccc2-c2nc(-c3ccccc3)c(-c3ccccc3)n2CC(=O)O)c1 | > 1 µM |  | > 2 µM | > 2 µM |  | 
3 | O=C(O)COc1cccc(-c2ccccc2-c2nc(-c3ccccc3)c(-c3ccccc3)n2CCF)c1 | > 1 µM |  | < 0.002 µM | > 2 µM | 0.0087 µM | 
4 | O=C(O)COc1cccc(-c2ccccc2-c2cc(-c3ccccc3)c(-c3ccccc3)[nH]2)c1 | > 1 µM |  | 0.012 µM | > 2 µM |  | 
5 | O=C(O)CCCCOc1ccccc1-c1nc(-c2ccccc2)c(-c2ccccc2)o1 | 0.032 µM |  | 0.058 µM | > 2 µM |  | 
6 | CCc1c(-c2ccccc2)c(-c2ccccc2)nn1-c1ccccc1-c1cccc(C(O)C(=O)O)c1 (stereo not given) | 0.36 µM |  | 0.028 µM | 0.55 µM |  | 
7 | CCc1c(-c2ccccc2-c2cccc(OCC(=O)O)c2)oc(-c2ccccc2)c1-c1ccccc1 | 0.22 µM |  | 0.0035 µM |  | 0.032 µM | 
8 | O=S(=O)(O)c1cccc2cccc(Nc3ccccc3)c12 |  | 0.15 µM |  |  | 1 µM | 
9 | CCCCCCCC/C=C\CCCCCCCC(=O)O [OLEIC ACID] |  |  |  | 0.248 µM |  | 
10 | Cn1c(-c2ccccc2-c2cccc(OCC(=O)O)c2)nc(-c2ccccc2)c1-c1ccccc1 | > 1 µM |  | < 0.002 µM |  | 0.013 µM | 
11 | O=C(O)CNc1cccc(-c2ccccc2-c2nc(-c3ccccc3)c(-c3ccccc3)[nH]2)c1 | > 1 µM |  | 0.018 µM | > 2 µM | 0.3 µM | 
12 | CCn1c(-c2ccccc2-c2cccc(OCC(=O)O)c2)nc(-c2ccccc2)c1-c1ccccc1 | > 1 µM |  | < 0.002 µM |  | 0.0033 µM | 
13 | O=C(O)COc1cccc(-c2ccccc2-c2nc(-c3ccccc3)c(-c3ccccc3)o2)c1 | > 1 µM |  | 0.006 µM | > 2 µM | 0.095 µM | 170
14 | O=C(O)COc1cccc(-c2ccccc2-c2nc(-c3ccccc3)c(-c3ccccc3)[nH]2)c1 | > 1 µM |  | 0.0093 µM | > 2 µM |  | 
15 | CCn1c(-c2ccccc2-c2cccc(NCC(=O)O)c2)nc(-c2ccccc2)c1-c1ccccc1 | > 1 µM |  | 0.0034 µM | > 2 µM | 0.013 µM | 
16 | O=C(O)COc1cccc(-c2ccccc2-c2cc(-c3ccccc3)c(-c3ccccc3)o2)c1 | > 1 µM |  | 0.036 µM | > 2 µM |  | 
17 | CC(C)Cn1c(-c2ccccc2-c2cccc(NCC(=O)O)c2)nc(-c2ccccc2)c1-c1ccccc1 | > 1 µM |  | 0.13 µM | > 2 µM |  | 
18 | CCc1c(-c2ccccc2)c(-c2ccccc2)nn1-c1ccccc1-c1cccc(C(=O)O)c1 | 0.11 µM |  | 0.65 µM |  |  | 
19 | Cn1c(-c2ccccc2-c2cccc(NCC(=O)O)c2)nc(-c2ccccc2)c1-c1ccccc1 | > 1 µM |  | 0.0027 µM | > 2 µM | 0.048 µM | 
